{"source": "patent US9340559B2", "about": "“Proteasome inhibitor delanzomib for use in the treatment of lupus” (Cephalon, Inc., priority 2011, dated 2016)", "format_in_all_cases": "in vivo, mouse", "key": {"MRL/lpr mice [1]": {"system": "MRL/lpr mice", "experiment": "Urinalysis: total urine protein (proteinuria), MRL/lpr mice", "conditions": "G6: 1.5 mg/kg ip, 3× wk", "experimental": "Urine samples are acid precipitated for total protein recovery and analysis. Samples for which enough urine remained are used for Uristix® leukouria analysis. Briefly, a standard protein solution is prepared from normal mouse sera and is used as a standard for mouse urinary protein assay by turbidity. Standard preparation is as follows: 0, 5, 10, 15, 20, 30, 40, and 50 μL of a 4 mg/mL mouse sera standard protein solution as provided in the kit are added in duplicate into two columns. PBS is added to individual wells to adjust the final volume to 50 μL. For urine sample preparation, urine samples are centrifuged at 9880×g for 3 minutes using a tabletop micro-centrifuge. Urine supernatant (1-50 μL) is added in duplicate. PBS is added to adjust the volume to 50 μL total. For the turbidity assay: 25 μL of 0.1 N HCl is added into blank columns and 250 μL of 3% sulfosalicyclic acid into the test columns. The microplate is incubated for 10 minutes at RT and plates are read using an ELISA reader with single beam at 450 nm. For the Uristix® strip assay, strips are laid out and labeled. Twenty microliters of urine are placed onto each test strip square and incubated for at least 30 seconds before the result is recorded. For all total urine analysis plate-based assays, values below the limit of detection set by the lowest point along the standard or set by the manufacturer are considered out of range and are not estimated, but assumed the lowest point along the standard curve for that particular assay."}, "NZM mice [2]": {"system": "NZM mice", "experiment": "Antinuclear antibody (ANA) ELISA (anti-chromatin, anti-Smith Ag, anti-dsDNA), serum of NZM mice (Example 2)", "conditions": "G5 1.5 mg/kg ip, 3× wk"}, "NZM mice [3]": {"system": "NZM mice"}, "MRL/lpr mice [4]": {"system": "MRL/lpr mice", "experiment": "Renal histopathology scoring (kidney IC-GN), MRL/lpr mice", "conditions": "G6: 1.5 mg/kg ip, 3× wk", "experimental": "For histological analyses, the left kidney from each animal is removed and fixed in 10% buffered neutral 10% formalin (EMD) for 48 hours on an orbital rocker at 25° C., then washed overnight with running dH2O and stored in 70% ethanol at 4° C. until ready to be processed. Kidney stains used for histological analyses included hematoxylin and eosin (H&E), Periodic Acid Schiff (PAS) and Trichrome stains (Wistar Institute, Philadelphia, Pa.). All 3 stained sections are used by the pathologist for scoring purposes. All histological scoring is performed blinded and by an independent board certified veterinary medical pathologist (Julie Engiles, VMD, DACVP). Multiple stains are used to determine score values. Images in FIG. 17 show worst affected area of section selected blindly by the pathologist.\nKidney IC-GN Scoring Method (Smith, Dong et al. 2007):\n1. Glomerular cellularity—Score 1-5: Null, low, moderate, high, severe\n2. Glomerular necrosis—Score 1-5: Null, low, moderate, high, severe\n3. Glomerulosclerosis—Score 1-5: Null, low, moderate, high, severe\n4. Interstitial infiltration—Score 1-5: Null, low, moderate, high, severe\n5. Tubular atrophy—Score 1-5: Null, low, moderate, high, severe\n6. Interstitial fibrosis—Score 1-5: Null, low, moderate, high, severe\n7. Vasculitis—Score 1-5: Null, low, moderate, high, severe\nSpecific Pathologist Definitions: • Necrosis is defined by the presence of nuclear debris/pyknosis within the glomerular tuft indicative of “necrosis.” In many samples, this is a very mild, rare finding within only a very few segments of the glomerular tuft. Also consider effacement of the glomerular tuft by PAS positive, Trichrome negative material necrosis. • Glomerular sclerosis is defined by increased fibroplasia or fibrosis within the glomerular tuft or capsule. […] Most of the vascular changes are mild and could be considered “arteriosclerosis” characterized by proliferation of the smooth muscle cells, and hyalinization of the extracellular matrix. This change may reflect hypertension secondary to glomerular pathology. In very few animals is there overt “vasculitis.” Most inflammatory changes are within the walls of the blood vessels, with little to no damage to the endothelium, and no overt hemorrhage/fibrin leakage. Many also have perivascular rims of fibroblasts."}}}
{"smiles": "C[C@@H]1C[C@H]2[C@@H]3CCC4=CC(=O)C=C[C@]4(C)[C@@]3(F)[C@@H](O)C[C@]2(C)[C@@]1(O)C(=O)CO", "note": "[dexamethasone, Dexamethasone, reference compound]", "values": [{"measurement": "Urine AUC proteinuria, percent change vs vehicle", "setting": "MRL/lpr mice [1]", "value": "−46", "unit": "%"}, {"measurement": "ANA Smith Ag AUC, percent change vs vehicle", "setting": "NZM mice [2]", "value": "−56", "unit": "%"}, {"measurement": "ANA chromatin AUC, percent change vs vehicle", "setting": "NZM mice [2]", "value": "−8", "unit": "%"}, {"measurement": "ANA dsDNA AUC, percent change vs vehicle", "setting": "NZM mice [2]", "value": "−19", "unit": "%"}, {"measurement": "Cytokine IL-12 AUC, percent change vs vehicle", "setting": "NZM mice [3]; G5 1.5 mg/kg ip, 3× wk", "value": "−48", "unit": "%"}, {"measurement": "Cytokine IL-13 AUC, percent change vs vehicle", "setting": "NZM mice [3]; G5 1.5 mg/kg ip, 3× wk", "value": "−56", "unit": "%"}, {"measurement": "Cytokine IL-17A AUC, percent change vs vehicle", "setting": "NZM mice [3]; G5 1.5 mg/kg ip, 3× wk", "value": "−55", "unit": "%"}, {"measurement": "Cytokine IP-10 AUC, percent change vs vehicle", "setting": "NZM mice [3]; G5 1.5 mg/kg ip, 3× wk", "value": "−37", "unit": "%"}, {"measurement": "Cytokine MIG AUC, percent change vs vehicle", "setting": "NZM mice [3]; G5 1.5 mg/kg ip, 3× wk", "value": "−68", "unit": "%"}, {"measurement": "Cytokine TNFα AUC, percent change vs vehicle", "setting": "NZM mice [3]; G5 1.5 mg/kg ip, 3× wk", "value": 79, "unit": "%"}, {"measurement": "p, serum IL-12p40/p70 concentration vs G5 Bortezomib 0.3 mg/kg 1× wk ip", "setting": "NZM mice [3]; G8 1.5 mg/kg 3× wk ip", "value": "NS (NS = not significant (p > 0.05))"}, {"measurement": "p, serum IL-12p40/p70 concentration vs G6 Bortezomib 0.3 mg/kg 2× wk ip", "setting": "NZM mice [3]; G8 1.5 mg/kg 3× wk ip", "value": "NS (NS = not significant (p > 0.05))"}, {"measurement": "p, serum IL-12p40/p70 concentration vs G7 CTX 50 mg/kg 1× wk ip", "setting": "NZM mice [3]; G8 1.5 mg/kg 3× wk ip", "value": "NS (NS = not significant (p > 0.05))"}, {"measurement": "p, serum IL-12p40/p70 concentration vs G9 Vehicle 1× wk ip", "setting": "NZM mice [3]; G8 1.5 mg/kg 3× wk ip", "value": "NS (NS = not significant (p > 0.05))"}, {"measurement": "p, serum IL-13 concentration vs G5 Bortezomib 0.3 mg/kg 1× wk ip", "setting": "NZM mice [3]; G8 1.5 mg/kg 3× wk ip", "value": "NS (NS = not significant (p > 0.05))"}, {"measurement": "p, serum IL-13 concentration vs G6 Bortezomib 0.3 mg/kg 2× wk ip", "setting": "NZM mice [3]; G8 1.5 mg/kg 3× wk ip", "value": "NS (NS = not significant (p > 0.05))"}, {"measurement": "p, serum IL-13 concentration vs G7 CTX 50 mg/kg 1× wk ip", "setting": "NZM mice [3]; G8 1.5 mg/kg 3× wk ip", "value": "p < 0.001"}, {"measurement": "p, serum IL-13 concentration vs G9 Vehicle 1× wk ip", "setting": "NZM mice [3]; G8 1.5 mg/kg 3× wk ip", "value": "NS (NS = not significant (p > 0.05))"}, {"measurement": "p, serum IL-17A concentration vs G5 Bortezomib 0.3 mg/kg 1× wk ip", "setting": "NZM mice [3]; G8 1.5 mg/kg 3× wk ip", "value": "NS (NS = not significant (p > 0.05))"}, {"measurement": "p, serum IL-17A concentration vs G6 Bortezomib 0.3 mg/kg 2× wk ip", "setting": "NZM mice [3]; G8 1.5 mg/kg 3× wk ip", "value": "NS (NS = not significant (p > 0.05))"}, {"measurement": "p, serum IL-17A concentration vs G7 CTX 50 mg/kg 1× wk ip", "setting": "NZM mice [3]; G8 1.5 mg/kg 3× wk ip", "value": "p < 0.001"}, {"measurement": "p, serum IL-17A concentration vs G9 Vehicle 1× wk ip", "setting": "NZM mice [3]; G8 1.5 mg/kg 3× wk ip", "value": "NS (NS = not significant (p > 0.05))"}, {"measurement": "p, serum IP-10 concentration vs G5 Bortezomib 0.3 mg/kg 1× wk ip", "setting": "NZM mice [3]; G8 1.5 mg/kg 3× wk ip", "value": "NS (NS = not significant (p > 0.05))"}, {"measurement": "p, serum IP-10 concentration vs G6 Bortezomib 0.3 mg/kg 2× wk ip", "setting": "NZM mice [3]; G8 1.5 mg/kg 3× wk ip", "value": "NS (NS = not significant (p > 0.05))"}, {"measurement": "p, serum IP-10 concentration vs G7 CTX 50 mg/kg 1× wk ip", "setting": "NZM mice [3]; G8 1.5 mg/kg 3× wk ip", "value": "p < 0.001"}, {"measurement": "p, serum IP-10 concentration vs G9 Vehicle 1× wk ip", "setting": "NZM mice [3]; G8 1.5 mg/kg 3× wk ip", "value": "p < 0.001"}, {"measurement": "p, serum MIG concentration vs G5 Bortezomib 0.3 mg/kg 1× wk ip", "setting": "NZM mice [3]; G8 1.5 mg/kg 3× wk ip", "value": "NS (NS = not significant (p > 0.05))"}, {"measurement": "p, serum MIG concentration vs G6 Bortezomib 0.3 mg/kg 2× wk ip", "setting": "NZM mice [3]; G8 1.5 mg/kg 3× wk ip", "value": "NS (NS = not significant (p > 0.05))"}, {"measurement": "p, serum MIG concentration vs G7 CTX 50 mg/kg 1× wk ip", "setting": "NZM mice [3]; G8 1.5 mg/kg 3× wk ip", "value": "p < 0.001"}, {"measurement": "p, serum MIG concentration vs G9 Vehicle 1× wk ip", "setting": "NZM mice [3]; G8 1.5 mg/kg 3× wk ip", "value": "NS (NS = not significant (p > 0.05))"}, {"measurement": "p, serum TNFα concentration vs G5 Bortezomib 0.3 mg/kg 1× wk ip", "setting": "NZM mice [3]; G8 1.5 mg/kg 3× wk ip", "value": "NS (NS = not significant (p > 0.05))"}, {"measurement": "p, serum TNFα concentration vs G6 Bortezomib 0.3 mg/kg 2× wk ip", "setting": "NZM mice [3]; G8 1.5 mg/kg 3× wk ip", "value": "p <0.01"}, {"measurement": "p, serum TNFα concentration vs G7 CTX 50 mg/kg 1× wk ip", "setting": "NZM mice [3]; G8 1.5 mg/kg 3× wk ip", "value": "p <0.05"}, {"measurement": "p, serum TNFα concentration vs G9 Vehicle 1× wk ip", "setting": "NZM mice [3]; G8 1.5 mg/kg 3× wk ip", "value": "NS (NS = not significant (p > 0.05))"}, {"measurement": "EOS glomerular cellularity, percent change vs vehicle", "setting": "MRL/lpr mice [4]", "value": "−15", "unit": "%"}, {"measurement": "EOS glomerular necrosis, percent change vs vehicle", "setting": "MRL/lpr mice [4]", "value": "−25", "unit": "%"}, {"measurement": "EOS glomerulosclerosis, percent change vs vehicle", "setting": "MRL/lpr mice [4]", "value": "−27", "unit": "%"}, {"measurement": "EOS interstitial infiltration, percent change vs vehicle", "setting": "MRL/lpr mice [4]", "value": "−50", "unit": "%"}, {"measurement": "EOS vasculitis, percent change vs vehicle", "setting": "MRL/lpr mice [4]", "value": "−18", "unit": "%"}, {"measurement": "Kidney EOS interstitial fibrosis, percent change vs vehicle", "setting": "MRL/lpr mice [4]", "value": "−27", "unit": "%"}, {"measurement": "Kidney EOS tubular atrophy, percent change vs vehicle", "setting": "MRL/lpr mice [4]", "value": "−23", "unit": "%"}]}
